From patent US20030083484A1, “Antisense modulation of short heterodimer partner-1 expression” (priority 2001, published 2003) come the findings set out here.

Strand notation (5' to 3'): a small letter for the sugar, then the base; units joined by * are phosphorothioate-linked, units joined directly phosphodiester-linked; [ ] holds rarer units or linkages, { } end groups; capitals alone tell only the bases. e = 2'-O-(2-methoxyethyl) (MOE); [5mC] = 5-methylcytosine; d = 2'-deoxy (DNA)

This series deals with mouse short heterodimer partner-1 mRNA. In words: Inhibition of mouse short heterodimer partner-1 mRNA levels in primary hepatocytes, quantitative real-time PCR. It is filed as cell-based. Set-up: concentration or dose not given beside the values. The note with it: averages from two experiments. Here is the method: Primary mouse hepatocytes were prepared from CD-1 mice purchased from Charles River Labs (Wilmington, Mass.) and were routinely cultured in Hepatoyte Attachment Media (Gibco) supplemented with 10% Fetal Bovine Serum (Gibco/Life Technologies, Gaithersburg, Md.), 250 nM dexamethasone (Sigma), and 10 nM bovine insulin (Sigma). Cells were seeded into 96-well plates (Falcon-Primaria #3872) at a density of 10000 cells/well for use in RT-PCR analysis.
Cells were harvested 16-24 hours after oligonucleotide treatment.
Vacuum was applied for 15 seconds. […] The elution step was repeated with an additional 60 μL water.
Total RNA is quantified using RiboGreen™ RNA quantification reagent from Molecular Probes.
Probes and primers to mouse short heterodimer partner-1 were designed to hybridize to a mouse short heterodimer partner-1 sequence, using published sequence information (GenBank accession number L75567, incorporated herein as SEQ ID NO: 10).
All cytidine residues are 5-methylcytidines. […] Data are averages from two experiments. If present, “N.D.” indicates “no data”.
On the technique in general: In qPCR the cycle at which signal appears reflects the starting amount.
Regarding “ISIS 148287: 2′-MOE gapmer, phosphorothioate, GTTCTGTACAAAGTCAGGAG, targets mouse short heterodimer partner-1 RNA (antisense eG*eT*eT*e[5mC]*eT*dG*dT*dA*d[5mC]*dA*dA*dA*dG*dT*d[5mC]*eA*eG*eG*eA*eG)”, the “% INHIB (inhibition of mouse short heterodimer partner-1 mRNA levels)” value (“% INHIB” for short) is listed as “at least 50%”. The same measure for “148264 (antisense eG*e[5mC]*eA*eT*eA*d[5mC]*dA*dG*dA*dA*dT*dA*dG*dT*d[5mC]*eG*eG*eA*e[5mC]*eG) [compound 148264]”: 60%. The same measure for “148269 (antisense eT*eA*eG*eG*eA*d[5mC]*dA*dT*d[5mC]*d[5mC]*dA*dA*dG*dG*d[5mC]*e[5mC]*eT*e[5mC]*e[5mC]*e[5mC]) [compound 148269]”: 59%. In the case of “148277 (antisense eT*eT*e[5mC]*eA*eG*dG*dT*dA*d[5mC]*dG*d[5mC]*dA*dT*dA*d[5mC]*eT*e[5mC]*e[5mC]*eT*eT) [compound 148277]” it was 62%; in that of “ISIS 148272: 2′-MOE gapmer, phosphorothioate, CGGAGCCTCAGCCACCTCGA, targets mouse short heterodimer partner-1 RNA (antisense e[5mC]*eG*eG*eA*eG*d[5mC]*d[5mC]*dT*d[5mC]*dA*dG*d[5mC]*d[5mC]*dA*d[5mC]*e[5mC]*eT*e[5mC]*eG*eA)”, “at least 50%”; in that of “ISIS 148262: 2′-MOE gapmer, phosphorothioate, TGACTGGCCGGAGCTCATGG, targets mouse short heterodimer partner-1 RNA (antisense eT*eG*eA*e[5mC]*eT*dG*dG*d[5mC]*d[5mC]*dG*dG*dA*dG*d[5mC]*dT*e[5mC]*eA*eT*eG*eG)”, “at least 50%”. For the substance “148265 (antisense eA*eG*eG*eT*eG*d[5mC]*dA*dA*d[5mC]*dG*dG*dG*d[5mC]*d[5mC]*dT*eG*eG*eT*e[5mC]*e[5mC]) [compound 148265]”, the “% INHIB” value is on record as 41%.

Consider “148266 (antisense eA*eG*eG*e[5mC]*eA*dG*dT*dG*dG*d[5mC]*dT*dG*dT*dG*dA*eG*eA*eT*eG*e[5mC]) [compound 148266]”, for which the “% INHIB” value is on record as 44%. The same measure for “148267 (antisense e[5mC]*eA*e[5mC]*eA*eG*dA*d[5mC]*dG*d[5mC]*dA*d[5mC]*dA*dG*dG*d[5mC]*e[5mC]*eG*e[5mC]*eT*eG) [compound 148267]”: 28%; for “148281 (antisense eA*eG*eA*eA*eG*dA*dG*dA*dT*d[5mC]*dT*dA*d[5mC]*d[5mC]*dA*eG*eA*eA*eG*eG) [compound 148281]”: 48%.

“148273 (antisense eT*eG*eG*e[5mC]*eT*dT*d[5mC]*d[5mC]*dT*d[5mC]*dT*dA*dG*d[5mC]*dA*eG*eG*eA*eT*e[5mC]) [compound 148273]”: the “% INHIB” value is 33%. In the case of “148282 (antisense eT*eG*eA*eT*eG*dT*d[5mC]*dA*dA*d[5mC]*dG*dT*d[5mC]*dT*d[5mC]*e[5mC]*e[5mC]*eA*eT*eG) [compound 148282]” it was 22%; in that of “148272 (antisense e[5mC]*eG*eG*eA*eG*d[5mC]*d[5mC]*dT*d[5mC]*dA*dG*d[5mC]*d[5mC]*dA*d[5mC]*e[5mC]*eT*e[5mC]*eG*eA) [compound 148272]”, 69%. The same measure for “148275 (antisense eT*eG*eT*eG*eG*d[5mC]*d[5mC]*dG*dG*dT*d[5mC]*dT*dG*dA*dT*eG*eG*e[5mC]*eT*eG) [compound 148275]”: 28%; for “148280 (antisense eG*eT*eG*e[5mC]*e[5mC]*dT*dG*dG*dA*dA*dT*dG*dT*dT*d[5mC]*eT*eT*eG*eA*eG) [compound 148280]”: 33%.

Turning to “148263 (antisense eA*e[5mC]*e[5mC]*eT*eG*d[5mC]*dA*dG*dA*dG*d[5mC]*d[5mC]*d[5mC]*dT*dG*eG*e[5mC]*eA*eT*eG) [compound 148263]”, the “% INHIB” value came out at 0%. In the case of “ISIS 148269: 2′-MOE gapmer, phosphorothioate, TAGGACATCCAAGGCCTCCC, targets mouse short heterodimer partner-1 RNA (antisense eT*eA*eG*eG*eA*d[5mC]*dA*dT*d[5mC]*d[5mC]*dA*dA*dG*dG*d[5mC]*e[5mC]*eT*e[5mC]*e[5mC]*e[5mC])” it was “at least 50%”; in that of “148274 (antisense eG*eG*e[5mC]*eA*e[5mC]*d[5mC]*d[5mC]*dT*dG*dG*dG*dT*dA*d[5mC]*d[5mC]*eG*e[5mC]*eT*eG*e[5mC]) [compound 148274]”, 22%; in that of “ISIS 148264: 2′-MOE gapmer, phosphorothioate, GCATACAGAATAGTCGGACG, targets mouse short heterodimer partner-1 RNA (antisense eG*e[5mC]*eA*eT*eA*d[5mC]*dA*dG*dA*dA*dT*dA*dG*dT*d[5mC]*eG*eG*eA*e[5mC]*eG)”, “at least 50%”. The same measure for “148285 (antisense eA*e[5mC]*eA*eG*eT*dT*dA*dG*dT*dA*dG*dT*dG*dT*dA*e[5mC]*eA*e[5mC]*eT*eG) [compound 148285]”: 50%; for “148271 (antisense eA*eA*e[5mC]*e[5mC]*e[5mC]*dA*dA*dG*d[5mC]*dA*dG*dG*dA*dA*dG*eA*eG*eA*eG*eG) [compound 148271]”: 56%; for “ISIS 148284: 2′-MOE gapmer, phosphorothioate, GAGGCACCAGACTCCATTCC, targets mouse short heterodimer partner-1 RNA (antisense eG*eA*eG*eG*e[5mC]*dA*d[5mC]*d[5mC]*dA*dG*dA*d[5mC]*dT*d[5mC]*d[5mC]*eA*eT*eT*e[5mC]*e[5mC])”: “at least 50%”.

In the case of “ISIS 148286: 2′-MOE gapmer, phosphorothioate, AGTCATCAAGGGCTTGCTGG, targets mouse short heterodimer partner-1 RNA (antisense eA*eG*eT*e[5mC]*eA*dT*d[5mC]*dA*dA*dG*dG*dG*d[5mC]*dT*dT*eG*e[5mC]*eT*eG*eG)”, the “% INHIB” value is recorded as “at least 50%”. The same measure for “ISIS 148271: 2′-MOE gapmer, phosphorothioate, AACCCAAGCAGGAAGAGAGG, targets mouse short heterodimer partner-1 RNA (antisense eA*eA*e[5mC]*e[5mC]*e[5mC]*dA*dA*dG*d[5mC]*dA*dG*dG*dA*dA*dG*eA*eG*eA*eG*eG)”: “at least 50%”; for “ISIS 148285: 2′-MOE gapmer, phosphorothioate, ACAGTTAGTAGTGTACACTG, targets mouse short heterodimer partner-1 RNA (antisense eA*e[5mC]*eA*eG*eT*dT*dA*dG*dT*dA*dG*dT*dG*dT*dA*e[5mC]*eA*e[5mC]*eT*eG)”: “at least 50%”. In the case of “148268 (antisense eT*eG*e[5mC]*eA*eG*dG*dT*dG*d[5mC]*dG*dG*dT*dG*d[5mC]*dG*eG*eA*eG*e[5mC]*eA) [compound 148268]” it was 19%.

In the case of “ISIS 148276: 2′-MOE gapmer, phosphorothioate, AGAAAGACTCCAGGCAGCGC, targets mouse short heterodimer partner-1 RNA (antisense eA*eG*eA*eA*eA*dG*dA*d[5mC]*dT*d[5mC]*d[5mC]*dA*dG*dG*d[5mC]*eA*eG*e[5mC]*eG*e[5mC])”, the “% INHIB” value is given as “at least 50%”. Consider “148279 (antisense eG*eG*eT*eA*eG*dA*dG*dG*d[5mC]*d[5mC]*dA*dT*dG*dA*dG*eG*eA*eG*eG*eA) [compound 148279]”, for which the “% INHIB” value is reported as 43%. Turning to “ISIS 148277: 2′-MOE gapmer, phosphorothioate, TTCAGGTACGCATACTCCTT, targets mouse short heterodimer partner-1 RNA (antisense eT*eT*e[5mC]*eA*eG*dG*dT*dA*d[5mC]*dG*d[5mC]*dA*dT*dA*d[5mC]*eT*e[5mC]*e[5mC]*eT*eT)”, the “% INHIB” value is recorded as “at least 50%”. The same measure for “148278 (antisense e[5mC]*eA*e[5mC]*eA*eG*dT*dG*d[5mC]*d[5mC]*d[5mC]*dA*dG*dT*dG*dA*eG*e[5mC]*e[5mC]*eT*e[5mC]) [compound 148278]”: 36%; for “148262 (antisense eT*eG*eA*e[5mC]*eT*dG*dG*d[5mC]*d[5mC]*dG*dG*dA*dG*d[5mC]*dT*e[5mC]*eA*eT*eG*eG) [compound 148262]”: 50%.

For “148276 (antisense eA*eG*eA*eA*eA*dG*dA*d[5mC]*dT*d[5mC]*d[5mC]*dA*dG*dG*d[5mC]*eA*eG*e[5mC]*eG*e[5mC]) [compound 148276]”, the “% INHIB” value was found to be 56%.

On to “148270 (antisense e[5mC]*eA*e[5mC]*eT*e[5mC]*dT*dA*dG*d[5mC]*dA*dG*d[5mC]*d[5mC]*dG*d[5mC]*e[5mC]*eG*e[5mC]*eT*eG) [compound 148270]”, for which the “% INHIB” value is 46%.
